Measurements published in ChEMBL document CHEMBL3044573, “Neurological activities of lapachol and its furano derivatives from Kigelia africana” (Med Chem Res, 2013).
Calls of active or inactive are those of the source. The calls are words filed in the database; no cut-off is given here.

Experiments:
Mus musculus [1] = assay: Antidepressant activity in albino Mus musculus (mouse) assessed as reduction in immobility time at 15 mg/kg, ip administered 30 min prior to testing by forced-swim test relative to control; type: functional, organism-based; design: dose 15 mg/kg
Mus musculus [2] = assay: Anxiolytic activity in albino Mus musculus (mouse) assessed as increase in number of open arm enteries at 100 mg/kg, ip administered 30 min prior to testing by elevated-plus maze test relative to control; type: functional, organism-based; design: dose 100 mg/kg
Mus musculus [3] = assay: Anxiolytic activity in albino Mus musculus (mouse) assessed as increase in number of open arm enteries at 50 mg/kg, ip administered 30 min prior to testing by elevated-plus maze test relative to control; type: functional, organism-based; design: dose 50 mg/kg
Mus musculus [4] = assay: Anxiolytic activity in albino Mus musculus (mouse) assessed as increase in time spent on open arm at 50 mg/kg, ip administered 30 min prior to testing by elevated-plus maze test relative to control; type: functional, organism-based; design: dose 50 mg/kg
Mus musculus [5] = assay: Anxiolytic activity in albino Mus musculus (mouse) assessed as increase in time spent on open arm at 100 mg/kg, ip administered 30 min prior to testing by elevated-plus maze test relative to control; type: functional, organism-based; design: dose 100 mg/kg
Mus musculus [6] = assay: Anxiolytic activity in albino Mus musculus (mouse) assessed as decrease in rearing behaviour at 100 mg/kg, ip administered 30 min prior to testing by open-field test relative to control; type: functional, organism-based; design: dose 100 mg/kg
Mus musculus [7] = assay: Anxiolytic activity in albino Mus musculus (mouse) assessed as decrease in rearing behaviour at 50 mg/kg, ip administered 30 min prior to testing by open-field test relative to control; type: functional, organism-based; design: dose 50 mg/kg
Mus musculus [8] = assay: Antidepressant activity in albino Mus musculus (mouse) assessed as reduction in immobility time at 50 mg/kg, ip administered 30 min prior to testing by forced-swim test relative to control; type: functional, organism-based; design: dose 50 mg/kg
Mus musculus [9] = assay: Stimulation of central nervous system in albino Mus musculus (mouse) assessed as increase in number of lines crossed at 50 mg/kg, ip administered 30 min prior to testing by open-feild test relative to control; type: ADME, organism-based; design: dose 50 mg/kg, route intraperitoneal; settings: in vivo, 0.5 h
Mus musculus [10] = assay: Antidepressant activity in albino Mus musculus (mouse) assessed as reduction in immobility time at 100 mg/kg, ip administered 30 min prior to testing by forced-swim test relative to control; type: functional, organism-based; design: dose 100 mg/kg
Mus musculus [11] = assay: Stimulation of central nervous system in albino Mus musculus (mouse) assessed as increase in rearing behaviour at 50 mg/kg, ip administered 30 min prior to testing by open-feild test relative to control; type: ADME, organism-based; design: dose 50 mg/kg, route intraperitoneal; settings: in vivo, 0.5 h
Mus musculus [12] = assay: Stimulation of central nervous system in albino Mus musculus (mouse) assessed as increase in rearing behaviour at 100 mg/kg, ip administered 30 min prior to testing by open-feild test relative to control; type: ADME, organism-based; design: dose 100 mg/kg, route intraperitoneal; settings: in vivo, 0.5 h
Mus musculus [13] = assay: Stimulation of central nervous system in albino Mus musculus (mouse) assessed as increase in number of lines crossed at 100 mg/kg, ip administered 30 min prior to testing by open-feild test relative to control; type: ADME, organism-based; design: dose 100 mg/kg, route intraperitoneal; settings: in vivo, 0.5 h

Row | SMILES | Activity (Mus musculus [1]) | Activity (Mus musculus [2]) | Activity (Mus musculus [3]) | Activity (Mus musculus [4]) | Activity (Mus musculus [5]) | Activity (Mus musculus [6]) | Activity (Mus musculus [7]) | Activity (Mus musculus [8]) | Activity (Mus musculus [9]) | Activity (Mus musculus [10]) | Activity (Mus musculus [11]) | Activity (Mus musculus [12]) | Activity (Mus musculus [13])
1 | CN(C)CCCN1c2ccccc2CCc2ccccc21 | Active |  |  |  |  |  |  |  |  |  |  |  | 
2 | CC1(C)C=CC2=C(O1)C(=O)c1ccccc1C2=O |  | inactive | inactive | inactive | inactive |  |  |  |  |  |  |  | 
3 | CC(=O)c1cc2c(o1)C(=O)c1ccccc1C2=O [NAPABUCASIN] |  |  |  |  |  | Active | Active | Active | Toxic | Active |  |  | 
4 | CC[C@H](CC[C@@H](C)[C@H]1CC[C@H]2[C@@H]3CC=C4C[C@@H](O)CC[C@]4(C)[C@H]3CC[C@]12C)C(C)C [BETA-SITOSTEROL] |  | Active | Active | inactive | inactive |  |  | inactive | Toxic | inactive | Toxic |  | 
5 | CC(C)=CCC1=C(O)C(=O)c2ccccc2C1=O [LAPACHOL] |  | Active | Active | inactive | inactive |  |  | Active |  |  |  | Toxic | Toxic
6 | CC(O)c1cc2c(o1)C(=O)c1ccccc1C2=O (stereo unspecified) |  | Active |  |  | Active |  | Active | Active |  |  |  | Toxic | Toxic
